The values that follow come from patent publication US6562828B1, “Amidine compounds” (Japan Tobacco Inc., priority 1998, dated 2003).

Structures can show the parent of a compound that is named as a salt. Some results are limits rather than exact numbers.

The target in one assay is T1, Human FIIa (Homo sapiens, UniProt P00734).
T1 construct: purchased Sigma
The assay is described as follows: Determination of anti-factor IIa (FIIa) activity, synthetic substrate S-2238. Particulars: S-2238, 37° C., pH 8.4, read-out: Experimental Example 2: anti-FIIa activity, IC50. The format is biochemical.

In assay [1] the target is T2, Human FXa (Homo sapiens, UniProt P00742).
T2 construct: Human FXa [Enzyme research Laboratories (USA)] enzyme; purchased Enzyme Research Laboratories (USA)
As to the kind of experiment: Determination of anti-factor Xa (FXa) activity, synthetic substrate S-2222. The assay is classed as biochemical. Particulars: S-2222, 37° C., pH 8.4, read-out: Experimental Example 1: anti-FXa activity, IC50. The protocol:
Determination of Anti-factor Xa (FXa) Activity
Human FXa [Enzyme research Laboratories (USA)] enzyme (40 μl, 0.16U/ml) and test compounds (40 l) adjusted to various concentrations were incubated in 0.1M Tris (Tris-hydroxymethyl-aminomethane) buffer (pH 8.4) containing 0.2M sodium chloride (herein to be referred to as 0.1 M tris-0.2M NaCl buffer) (40 μl) at 37° C. for 10 min. A synthetic substrate S-2222 (Daiichi Pure Chemical (Tokyo, Japan), 40 μl) adjusted to 0.8 mM was added and the mixture was incubated at 37° C. for 10 min. The reaction was stopped by addition of 60% acetic acid (40 μl) and absorbance at 405 nm was measured by Model 3550 (BIO-RAD). For the control, the solvent was used instead of the test compound.
Target sequence in this assay (P00742 235-488 limits assumed): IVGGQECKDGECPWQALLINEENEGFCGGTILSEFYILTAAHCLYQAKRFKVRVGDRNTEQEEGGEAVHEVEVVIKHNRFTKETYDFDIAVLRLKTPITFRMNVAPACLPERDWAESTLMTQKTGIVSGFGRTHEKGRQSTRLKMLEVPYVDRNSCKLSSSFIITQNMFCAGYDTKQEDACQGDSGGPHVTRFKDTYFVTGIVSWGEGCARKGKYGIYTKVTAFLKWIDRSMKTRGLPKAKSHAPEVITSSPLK
Target sequence in this assay (P00742 41-179 partner limits assumed): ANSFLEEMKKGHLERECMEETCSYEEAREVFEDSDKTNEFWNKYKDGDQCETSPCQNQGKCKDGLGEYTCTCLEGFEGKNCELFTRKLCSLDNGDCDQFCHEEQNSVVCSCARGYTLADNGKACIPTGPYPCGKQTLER

The target in assay [2] is T2, Human FXa. As to the kind of experiment: Intravenous administration test in mouse, human FXa inhibitory activity in serum. The format is in vivo. Conditions: ICR mice, i.v., mean ± S.D., n = 3. On the procedure: Intravenous Administration Tests in Mouse
A test compound dissolved in physiological saline was intravenously administered to ICR mice (body weight 20-30 g, 4-6 weeks old) and the activity of the test compound was evaluated based on the human FXa inhibitory activity in serum as an indicator.
At 10, 30, 60, 120 min from the intravenous administration, blood was taken from the eye ground using a hematocrit tube. The blood was centrifuged at 9000 G for 5 min and the obtained serum was used for the determination.
(§1) Human FXa inhibitory activity was measured as follows. Human FXa [Enzyme research Laboratories (USA)] enzyme (40 μl, 0.5 U/ml) and a 4-fold diluted plasma sample (40 μl) were incubated in 0.1M Tris-0.2M NaCl buffer (pH 8.4) (40 μl) at 37° C. for 10 min. A synthetic substrate S-2222 (Daiichi Pure Chemical (Tokyo, Japan), 40 μl) adjusted to 0.8 mM was added and the mixture was incubated at 37° C. for 5 min. The reaction was stopped by addition of 60% acetic acid (40 μl) and absorbance at 405 nm was measured by Model 3550 (BIO-RAD). For the control, serum or plasma obtained prior to blood sampling was used for measurement. Human FXa inhibitory activity was calculated as inhibition percentage (%) against control.
Target sequence in this assay (P00742 235-488 limits assumed): as the sequence (P00742 235-488 limits assumed) above
Target sequence in this assay (P00742 41-179 limits assumed): as the sequence (P00742 41-179 partner limits assumed) above

Assay [3] concerns the target T2, Human FXa. The assay is described as follows: Oral administration test in mouse, human FXa inhibitory activity in serum. The format is in vivo. Particulars: ICR mice, mean ± S.D., n = 3. On the procedure:
as §1
Target sequence in this assay (P00742 235-488 limits assumed): as the sequence (P00742 235-488 limits assumed) above
Target sequence in this assay (P00742 41-179 limits assumed): as the sequence (P00742 41-179 partner limits assumed) above
Oral Administration Tests in Mouse
A test compound dissolved in distilled water was orally administered to ICR mice (body weight 20-30 g, 4-6 weeks old) and the activity of the test compound was evaluated based on the human FXa inhibitory activity in serum as an indicator.
At 30, 60, 120, 180 min from the oral administration, blood was taken from the eye ground using a hematocrit tube. The blood was centrifuged at 9000 G for 5 min and the obtained serum was used for the determination. Human FXa inhibitory activity was determined in the same manner as in the test by intravenous administration.

With `CC(=N)N1CCC(Oc2ccc(N(Cc3nc4cc(C(=N)N)ccc4n3CC(=O)Nc3ccc(OCc4ccccc4)cc3)C(=O)c3ccc(C(=O)O)cc3)cc2)CC1` [Example 18, 4-[N-[5-Amidino-1-(4-benzyloxyphenylcarbamoylmethyl)benzimidazol-2-ylmethyl]-N-[4-(1-acetimidoylpiperidin-4-yloxy)phenyl]carbamoyl]benzoic Acid Dihydrochloride], the IC50 is > 10000 nM at Human FIIa and 10 nM at Human FXa [1]. Moreover, the inhibition at 1 mg/kg at Human FXa [2] (10 minutes) amounted to 73 ± 1%; against Human FXa [2] (30 minutes), 60 ± 4%; at Human FXa [2] (60 minutes) it was 40 ± 3%; against Human FXa [2] (120 minutes), 23 ± 5%.
With `CC(=N)N1CCC(Oc2ccc(OCc3nc4cc(C(=N)N)ccc4n3CC(=O)c3ccccc3)cc2)CC1` [Example 57, 2-[4-(1-Acetimidoylpiperidin-4-yloxy)phenoxymethyl]-1-phenacylbenzimidazole-5-carboxamidine Dihydrochloride], the IC50 at Human FIIa is > 10000 nM; at Human FXa [1], 50 nM.
The matching figures for `CCOC(=O)C(=O)N(Cc1nc2cc(C(=N)N)ccc2n1CC(=O)NC1CCCCC1)C1CCN(c2ccncc2)CC1` [Example 60, 1-(Cyclohexylcarbamoylmethyl)-2-[N-[1-(pyridin-4-yl)piperidin-4-yl]-N-ethoxalylaminomethyl]benzimidazole-5-carboxamidine Dihydrochloride]: > 10000 nM and 900 nM.
Take `N=C(N)c1ccc2c(c1)nc(CN(C(=O)C(=O)O)C1CCN(c3ccncc3)CC1)n2CC(=O)NC1CCCCC1` [Example 61, N-[5-Amidino-1-(cyclohexylcarbamoylmethyl)benzimidazole-2-ylmethyl]-N-[l-(pyridin-4-yl)piperidin-4-yl]aminooxalic Acid Dihydrochloride]: the IC50 at Human FIIa was > 10000 nM; at Human FXa [1], 300 nM.
The corresponding values for `CCOC(=O)CN(Cc1nc2cc(C(=N)N)ccc2n1CC(=O)NC1CCCCC1)c1ccc(OC2CCN(C(C)=N)CC2)cc1` [Example 62, 2-[N-[4-(1-Acetimidoylpiperidin-4-yloxy)phenyl]-N-ethoxycarbonyl-methylaminomethyl]-1-(cyclohexylcarbamoylmethyl)benzimidazole-5-carboxamidine Dihydrochloride] are > 10000 nM and 100 nM.
In the case of `CC(=N)N1CCC(Oc2ccc(N(Cc3nc4cc(C(=N)N)ccc4n3CC(=O)NC3CCCCC3)C(=O)c3ccc(C(=O)O)cc3)cc2)CC1` [Example 63, N-[5-Amidino-1-(cyclohexylcarbamoylmethyl)benzimidazol-2-ylmethyl]-N-[4-(1-acetimidoylpiperidin-4-yloxy)phenyl]carbamoylbenzoic Acid], the IC50 is > 10000 nM at Human FIIa and 10 nM at Human FXa [1]. The inhibition at 10 mg/kg against Human FXa [3] (30 minutes) was found to be 22 ± 6%; on Human FXa [3] (60 minutes), 14 ± 9%; against Human FXa [3] (120 minutes), 12 ± 10%; at Human FXa [3] (180 minutes), 12 ± 4%. Moreover, the inhibition at 0.3 mg/kg on Human FXa [2] (10 minutes) was found to be 32 ± 2%; at Human FXa [2] (30 minutes) it was 16 ± 3%; at Human FXa [2] (60 minutes), 4 ± 3%; on Human FXa [2] (120 minutes), 1 ± 3%. Moreover, the inhibition at 1 mg/kg against Human FXa [2] (10 minutes) is 55 ± 3%; against Human FXa [2] (30 minutes), 46 ± 5%; against Human FXa [2] (60 minutes), 16 ± 7%; against Human FXa [2] (120 minutes), 3 ± 6%.
Take `COC(=O)c1ccc(C(=O)N(Cc2nc3cc(C(=N)N)ccc3n2CC(=O)NC2CCCCC2)c2ccc(OC3CCN(C(=N)N)CC3)cc2)cc1` [Example 64, 2-[N-[4-(1-Amidinopiperidin-4-yloxy)phenyl]-N-(4-methoxycarbonyl-benzoyl)aminomethyl]-1-(cyclohexylcarbamoylmethyl)benzimidazole-5-carboxamidine Dihydrochloride]: the IC50 on Human FIIa was > 10000 nM; at Human FXa [1], 100 nM. Further, the inhibition at 1 mg/kg was 55 ± 2% at Human FXa [2] (10 minutes), 43 ± 5% against Human FXa [2] (30 minutes) and 28 ± 6% at Human FXa [2] (60 minutes).
Regarding `N=C(N)c1ccc2c(c1)nc(CN(C(=O)c1ccc(C(=O)O)cc1)c1ccc(OC3CCN(C(=N)N)CC3)cc1)n2CC(=O)NC1CCCCC1` [Example 65, N-[5-Amidino-1-(cyclohexylcarbamoylmethyl)benzimidazol-2-ylmethyl]-N-[4-(1-amidinopiperidin-4-yloxy)phenyl]carbamoylbenzoic Acid Dihydrochloride], the IC50 at Human FIIa was > 10000 nM; at Human FXa [1], 20 nM. Also, the inhibition at 1 mg/kg turned out to be 55 ± 1% against Human FXa [2] (10 minutes), 34 ± 2% at Human FXa [2] (30 minutes) and 17 ± 2% against Human FXa [2] (60 minutes).
As for `N=C(N)N1CCc2ccc(OCC3CCN(S(=O)(=O)NCc4ccccc4)CC3)cc2C1` [Example 83, N-Benzyl-4-(2-amidino-1,2,3,4-tetrahydroisoquinolin-7-yloxymethyl)piperidine-1-sulfonamide hydrochloride], the IC50 on Human FIIa is > 10000 nM; at Human FXa [1], 700 nM.
As to `N=C(N)N1CCc2ccc(OCC3CCN(c4ccncc4CCC(=O)O)CC3)cc2C1` [Example 89, 3-[4-[4-(2-Amidino-1,2,3,4-tetrahydroisoquinolin-7-yloxymethyl)piperidin-1-yl]pyridin-3-yl]propionic Acid Dihydrochloride], the IC50 at Human FIIa is > 10000 nM; on Human FXa [1], 200 nM.
For the compound `CCOC(=O)C1(COc2ccc3c(c2)CN(C(=N)N)CC3)CCN(c2ccc(C(=N)N)cc2)CC1` [Example 98, 4-(2-Amidino-1,2,3,4-tetrahydroisoquinolin-7-yloxymethyl)-1-(4-amidinophenyl)-piperidine-4-carboxylic Acid Ethyl Ester Dihydrochloride], the IC50 on Human FIIa was > 10000 nM; on Human FXa [1], 400 nM.
The matching figures for `CC(=N)N1CCC(Oc2ccc(N(Cc3nc4cc(C(=N)N)ccc4n3C/C=C/c3ccccc3)C(=O)c3ccc(C(=O)O)cc3)cc2)CC1` [Example 109, N-[5-Amidino-1-(3-phenyl-2-propenyl)benzimidazol-2-ylmethyl]-N-[4-(1-acetimidoylpiperidin-4-yloxy)phenyl]carbamoylbenzoic Acid Dihydrochloride]: > 10000 nM and 200 nM.
Consider `CCN=C(N)N1CCC(Oc2ccc(N(Cc3nc4cc(C(=N)N)ccc4n3CC(=O)NC3CCCCC3)C(=O)c3ccc(C(=O)O)cc3)cc2)CC1` [Example 112, N-[5-Amidino-1-(cyclohexylcarbamoylmethyl)benzimidazol-2-ylmethyl]-N-[4-[1-(N-ethylamidino)piperidin-4-yloxy]phenyl]carbamoylbenzoic Acid Dihydrochloride], for which the 50% inhibitory concentration (IC50) was > 10000 nM on Human FIIa and 20 nM at Human FXa [1]. Besides, the inhibition at 1 mg/kg on Human FXa [2] (10 minutes) came out at 49 ± 1%; at Human FXa [2] (30 minutes), 41 ± 8%; at Human FXa [2] (60 minutes), 23 ± 11%.
